Legend:
[1] = MTT: Cell Damaging and Protecting Effect Test; type: cell-based, male Japanese White rabbit; details: rabbit, gastric corpus mucosa cells, final concentration 10^-4 M, 37° C., smaller value is better, read-out: MTT: cell damaging rate
Source text: MTT: Cell Damaging and Protecting Effect Test
It is confirmed that there is no toxicity in cell level. Those having a toxicity in cell level are inappropriate as an anti-ulcer drug.
A male Japanese White rabbit (2.5 to 3 kg) was anesthetized to death by Nembutal™ and, immediately thereafter, its stomach was removed. The greater curvature of the stomach was incised so as to remove the stomach contents therefrom. After the mucosal surface was washed with HBSS (Hanks' Balanced Salt Solution), the stomach in ice-cooled HBSS was transferred to a laboratory. […]
The sample compound was dissolved in DMSO so as to attain a concentration of 10^-2 M and then diluted with HBSS containing 2% of Ultrocer G™ so as to attain a final concentration of 10^-4 M. To each group, which 8 wells were used for, 10 μl of MTT reagent was added immediately after 100 μl of the medium in each well was exchanged for same volume of the resulting solution of the sample compound. […] Then, the absorbance (OD: 570 to 630) was measured by a microplate reader. […]
The cell damaging or cell protecting effect of the sample compound at the final concentration of 10^-4 M was expressed as cell damaging rate (%) as follows:
cell damaging rate (%)=(1-(absorbance in sample group/absorbance in control […]

[2] = tested on: stress ulcer formation; assay: WIS: Restraint and Water Immersion Stress-Induced Ulcer Inhibition Test; type: in vivo, male Crj:SD or Slc:SD rats; details: 100 mg/kg oral, 10 min before 7 h restraint and water immersion (21° C.), SD rats
Procedure: WIS: Restraint and Water Immersion Stress-Induced Ulcer Inhibition Test
The degree of inhibition of the stress ulcer formation is tested.
Male Crj:SD or Slc:SD rats (6 to 7-week-old) were fasted overnight, but allowed free access to water. Each group has 5 to 8 of these rats. The sample compound was dissolved or suspended in an aqueous solution of 0.3% sodium carboxymethylcellulose or 0.05% Tween 80 and then was orally administered (100 mg/10 ml/kg). To a control group, the vehicle was administered. 10 minutes later, the rats were placed in a stress cage and immersed to the level of xipfoid process in a water bath (21° C.) for 7 hours. At the end of the stress, the rats were sacrificed by inhalation of ether or carbon dioxide. Then, the stomach of each was removed, inflated by injecting 10 ml of 5% formalin neutral buffer solution, and immersed in 1% formalin neutral buffer solution for 30 minutes or more to be fixed. The stomach was incised along the greater curvature and then the length of each erosion in the glandular portion was determined under dissecting microscope. The sum of the length of erosions per stomach was defined as ulcer index (UI).
The effect obtained when 100 mg/kg of the sample compound had been administered was expressed as ulcer formation inhibitory rate (%) as follows:
ulcer formation inhibitory rate (%)=(1-(UI in sample group/UI in control

[3] = tested on: isolated gastric fundic gland (histamine-stimulated acid secretion); assay: CAP: Acid Secretion Inhibition Test In Vitro ([14C]-aminopyrine uptake); type: cell-based, male Japanese White rabbit; details: Oryctolagus cuniculus, 40 min, final concentration 10^-5 M, histamine 10^-5 M, 37° C., read-out: CAP: acid secretion inhibitory rate
Procedure: CAP: Acid Secretion Inhibition Test In Vitro
The acid secretion inhibitory activity in a cell level is studied. It can also be used for studying the mechanism of the effect. […]
ii-a) Preparation of isolated gastric fundus gland suspension
First, an isolated gastric fundic gland sample was prepared. Namely, a male Japanese White rabbit (2.5 to 3 kg) was anesthetized to death with Nembutal™ and then the abdomen was incised. Immediately thereafter, the stomach was removed and, after its pyloric and cardiac antrum were severed, incised along its greater curvature into two sheets. […]
Into 70 ml of the nutrient solution containing 1 mg/ml of collagenase, minced mucosal pieces were dispersed and intensely stirred in a conical flask with a stirrer at 37° C. for 40 to 60 minutes. During this period, 100% O2 was sprayed on the nutrient solution surface and the pH was appropriately measured such that it was immediately adjusted to pH 7.4, when the value was therebelow, with a base. […] The number of cells was counted under microscope and adjusted to 1.6×10^6 cells/ml. […]
Then, [^14 C]-aminopyrine uptake test was performed. […] The gland pellet was completely dried as the tube with its lid being opened was kept for one night in a drying oven at 80° C. and then the lid was closed and the weight was determined at room temperature. […]

With CC(C)Cc1cc(C(=O)NCCCOc2cccc(CN3CCCCC3)c2)ccc1OCc1ccc(F)cc1 [Example 1] the cytotoxicity at 4 h, 100 µM [1] was -3%, the “WIS: ulcer formation inhibitory rate” value [2] was 55% and the inhibition at 10 µM [3] was 104%.

For CC(C)=CCC/C(C)=C/COc1ccc(C(=O)NCCCOc2cccc(CN3CCCCC3)c2)cc1 [Example 2], the cytotoxicity at 4 h, 100 µM [1] was 49%, the “WIS: ulcer formation inhibitory rate” value [2] was 62% and the inhibition at 10 µM [3] was 102%.

Source: US5891890A, “Benzamide derivatives, anti-ulcer drug, and antibacterial drug” (Shiseido Co., Ltd., priority 1997, dated 1999)
